Earlier results as cited in patent US20210121517A1, “STABLE PARENTERAL DOSAGE FORM OF CETRORELIX ACETATE” (Sun Pharmaceutical Industries Limited, priority 2019, published 2021).
Like-named read-outs stand apart in the source and are kept apart here.

Details: 2.5 mg/ml

- time until aggregation was seen (gluconic acid 0.71%, pH 3.1): 12 days
- time until aggregation was seen (gluconic acid less than 0.07%, pH 3.7): ≤ 2 days
Substance: acetyl-D-3-(2′-naphtyl)-alanine-D-4-chlorophenylalanine-D-3-(3′-pyridyl)-alanine-L-serine-L-tyrosine-D-citruline-L-leucine-L-arginine-L-proline-D-alanine-amide [Cetrorelix acetate]
